{"source": "patent US12337010B2", "about": "“Compositions and methods of treatment using nicotinamide mononucleotide” (Washington University, priority 2017, dated 2025)", "key": {"Slc12a8 [1]": {"target": "T1, Slc12a8 (Mus musculus, UniProt Q8VI23)", "T1 construct": "NIH3T3 cells were transfected with 5 μg of pCXN2 carrying the full-length Slc12a8 cDNA (Slc12a8-OE); expressed in transfected cells", "T1 sequence (Q8VI23 1-705)": "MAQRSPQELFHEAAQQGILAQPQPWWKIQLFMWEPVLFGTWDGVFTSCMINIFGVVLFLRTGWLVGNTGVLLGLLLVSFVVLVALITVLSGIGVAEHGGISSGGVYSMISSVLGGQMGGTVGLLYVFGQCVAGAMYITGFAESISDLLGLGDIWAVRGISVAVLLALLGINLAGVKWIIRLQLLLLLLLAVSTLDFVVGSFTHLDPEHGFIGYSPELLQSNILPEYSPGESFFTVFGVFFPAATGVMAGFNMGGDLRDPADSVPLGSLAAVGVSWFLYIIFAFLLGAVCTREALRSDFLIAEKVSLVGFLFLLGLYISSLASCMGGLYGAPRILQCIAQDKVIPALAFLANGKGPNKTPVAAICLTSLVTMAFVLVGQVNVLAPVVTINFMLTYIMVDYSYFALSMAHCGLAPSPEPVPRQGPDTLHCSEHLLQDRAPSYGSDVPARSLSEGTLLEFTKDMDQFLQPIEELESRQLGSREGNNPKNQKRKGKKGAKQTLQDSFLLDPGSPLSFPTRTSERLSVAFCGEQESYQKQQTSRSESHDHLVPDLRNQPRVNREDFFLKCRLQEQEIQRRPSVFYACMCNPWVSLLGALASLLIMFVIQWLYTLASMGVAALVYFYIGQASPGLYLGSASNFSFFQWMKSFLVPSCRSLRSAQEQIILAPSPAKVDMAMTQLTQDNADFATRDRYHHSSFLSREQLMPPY", "assay": "Radiolabeled NMN uptake in Slc12a8-OE and control NIH3T3 cells", "format": "cell-based", "settings": "25 μM, 37° C., 3 and 5 min time points, Slc12a8-OE cells compared to control cells", "protocol": "NMN uptake analyses with radiolabeled NMN. Control and Slc12a8-OE NIH3T3 cells were harvested by centrifugation (400×g, 5 min), washed once in HBSS, and incubated at 37° C. in HBSS [pH 7.5] (5×10^6 cells/ml) containing 100 nM 3H-β-Nicotinamide mononucleotide (9 Ci/mmol; Moravek Biochemicals, CA) and unlabeled NMN to make the final concentration 25 μM. At the designated time points (1, 3, 5 and 10 minutes), aliquots of the cells (100 μl) were collected and placed in 1.5-ml microcentrifuge tubes containing silicone-mineral oil (density, 1.015; Sigma-Aldrich) on the top of 2 M potassium hydroxide solution, followed by centrifugation at 16,000×g for 30s. Cells were separated from the buffer and pelleted through the silicone-mineral oil layer. The radioactivity in these cell pellets was determined by a liquid scintillation counter. For calculating Km and Vmax, the same conditions were used as described above, but with various total concentrations of NMN, ranging from 1 μM to 100 μM. At the 4-min time point, 100 μl of cell suspension was collected and pelleted in the same way described above. The radioactivity in cell pellets was determined by a liquid scintillation counter. The radioactivity measured in control NIH3T3 cells was subtracted to calculate Slc12a8-specific NMN uptake in Slc12a8-OE NIH3T3 cells.\nUptake of NMN was measured as described in methods under “NMN uptake analyses with radiolabeled NMN” using 25 μM ^3H-NMN at 37° C. in control and Slc12a8-OE NIH3T3 cells over 10 min in Hanks' buffer [ph7.5] with Mg2+ and Ca2+ (n=12; analyzed by ANOVA with Sidak's test). […] This Km is qualitatively consistent with a detected range of NMN concentrations in mouse plasma and erythrocytes (Revollo, J. R. et al., Cell Metab., 6, 363-375, 2007; Ramsey, K. M., et al., Science, 324, 651-654, 2009; Yamada, K., et al., Anal. Biochem., 352, 282-285, 2006)."}, "Slc12a8 [2]": {"target": "T1, Slc12a8", "assay": "3H-NMN uptake and displacement in Slc12a8-OE proteoliposomes", "format": "biochemical", "settings": "for displacement of 3H-NMN: 150 μM cold compound, 150 nM 3H-NMN, 2 min", "protocol": "Proteoliposome experiments. Proteoliposome preparation was carried out as previously described (Bruzzone, S., et al., FASEB J., 15, 10-12, 2001). Briefly, 2×10^7 control or Slc12a8-OE NIH3T3 cells were resuspended in 1 ml of lysis buffer (10 mM Tris-HCl, pH 8.3, 150 mM NaCl, 0.3 M sucrose, protease inhibitor cocktail) and disrupted using a homogenizer. The lysate was centrifuged for 10 min at 3,000×g, and the supernatant was collected and centrifuged for 15 min at 100,000×g. The membrane proteins were solubilized with buffer A (10 mM Tris-HCl, pH 8.3, containing 150 mM NaCl and 0.5% n-octyl β-glucopyranoside). Separately, total lipids were extracted from hemoglobin-free erythrocyte membranes (ghosts) as described previously (Franco, L., et al., FASEB J., 12, 1507-1520, 1998). Total lipids from human erythrocyte membranes (3 mg) were dried and resuspended with 600 μl of solubilized membrane proteins (at approximately 0.7 mg/ml protein concentration). The resulting emulsions were sonicated in ice for 1 min and dialyzed against 5 liters of buffer A without n-octyl-β-glucopyranoside (dialysis buffer) for 24 h at 4° C. Proteoliposomes were recovered, centrifuged for 15 min at 100,000×g, resuspended in 900 μl dialysis buffer and passed 5 times through a 30-gauge needle.\nTo examine the Na+-dependency of Slc12a8, NaCl was replaced with 150 mM LiCl. All steps were carried out at 4° C. Proteoliposomes (30 μl in triplicate for each condition) were incubated for 2, 5 or 10 min at 25° C. in the presence of […] 3H-β-NMN (specific activity, 9.1 Ci/mmole) with or without label-free nucleotides (NMN, NR, NAD, AMP; NAM or NaMN). At the end of incubations, samples were filtered on a glass fiber paper. Filters were washed with 3 ml of dialysis buffer, dried, and counted for radioactivity.\nProteoliposomes were produced by combining the membrane fractions of Slc12a8-OE or control NIH3T3 cells with the phospholipid bilayers derived from deproteinized erythrocyte plasma membrane as described supra using 22 nM, ^3H-NMN at 25° C. in proteoliposomes produced from plasma membrane fractions of Slc12a8-OE and control NIH3T3 cells in transport buffer (n=3; analyzed by one-way ANOVA with Sidak's multiple comparisons test).\nIn order to determine substrate specificity of Slc12a8, these Slc12a8-OE proteoliposomes were used for displacement experiments with ^3H-NMN and various cold NAD+-related compounds. Uptake of ^3H-NMN (150 nM, 25° C.) was measured at 2 min in Slc12a8-OE proteoliposomes in the presence of 150 μM competing cold compounds (NMN, NR, NAD, AMP, NaMN, and nicotinamide) in transport buffer (n=3, analyzed by ANOVA with Dunnett's test). […] Data are shown as percentages of ^3H-NMN uptake (n=3; IC50 was calculated by non-linear regression analysis).\nIn these experiments, the sodium ion dependency of Slc12a8 for NMN transport was evaluated using the proteoliposome system."}, "Slc12a8 gene": {"tested_on": "Slc12a8 gene", "assay": "Microarray gene expression profiling of FK866-treated primary cultures", "format": "cell-based, mouse", "protocol": "Microarray Analysis. Total RNA was isolated from primary hepatocytes, pancreatic islets, and hippocampal neurospheres, treated with 0.1% DMSO (control) or FK866 (200 nM for primary hepatocytes, and 10 nM for pancreatic islets and hippocampal neurospheres). To determine transcriptional changes induced by FK866 treatment, microarray analyses were conducted using the Illumina Mouse Ref 8 whole genome microarrays (version 2). […] All data were analyzed by the R statistical software package.\nSlc12a8 was identified in the section of the Venn diagram in FIG. 1 indicated by an arrow. The Slc12a8 gene belongs to the SLC12 gene family of the electroneutral cation-chloride-coupled co-transporters, and the function of the protein encoded by this gene remains unknown (Hebert, S. C., et al., Pflugers Arch. 447, 580-593, 2004)."}, "Slc12a8 mRNA expression": {"tested_on": "Slc12a8 mRNA expression", "assay": "Slc12a8 mRNA expression by quantitative RT-PCR in cells and ex vivo small intestine explants", "format": "cell-based, mouse", "settings": "FK866 alone; primary hepatocytes, NIH3T3 fibroblasts (24 h), jejunum and ileum explants (4 h)", "protocol": "Cell culture and ex vivo small intestine explant culture. […] For Slc12a8 mRNA expression analysis, 2.5×10^5 cells per well were incubated in 6-well plates with DMEM with 1% FBS containing 0.1% DMSO or 100 nM FK866 or 100 nM FK866 plus 100 μM NMN for 24 h. Small intestines from 3-month old B6 male mice were cut into three segments with duodenum/jejunum/ileum length ratios of 1:3:2 (Wang, H. H., et al., Hepatology 45, 998-1006, 2007). […] Cellular and tissue RNA samples were analyzed by quantitative RT-PCR, as described previously (Stein, L. R. & Imai, S., EMBO J., 33, 1321-1340, 2014).\nThe amounts of adenosine produced were determined by HPLC. […] Silencing efficiencies were evaluated by quantitative RT-PCR.\nFIG. 2 illustrates that Slc12a8 is highly expressed in the small intestine and pancreas and moderately in the liver and white adipose tissue of B6 male mice at 3 months of age (n=3 mice). […] Cells were treated with these compounds for 24 h (n=4 mice for hepatocytes treated with DMSO and FK866, and n=3 mice for hepatocytes treated with FK866 and NMN; n=6 for NIH3T3 cells; analyzed using ANOVA with Tukey's test). FIG. 5 illustrates surface and intracellular Slc12a8 protein expression levels were measured by flow cytometry analysis in NIH3T3 cells treated with FK866 or FK866 plus NMN for 48h. […]"}}, "data": [{"compound": "3H-β-Nicotinamide mononucleotide [^3H-NMN]", "values": [{"measurement": "uptake of 3H-NMN", "setting": "Slc12a8 [1]", "result": "significantly enhanced"}, {"measurement": "3H-NMN incorporation", "setting": "Slc12a8 [2]; 22 nM, 25° C., within 2 min, Slc12a8-OE-derived vs control-derived proteoliposomes", "result": "significantly higher levels"}]}, {"compound": "Nc1ncnc2c1ncn2[C@@H]1O[C@H](COP(=O)(O)O)[C@@H](O)[C@H]1O", "note": "[AMP, adenosine monophosphate]", "values": [{"measurement": "displacement of 3H-NMN", "setting": "Slc12a8 [2]; 25° C.", "result": "very low or negligible displacement"}]}, {"compound": "O=C(/C=C/c1cccnc1)NCCCCC1CCN(C(=O)c2ccccc2)CC1", "note": "[FK866]", "values": [{"measurement": "Slc12a8 Z ratio", "setting": "Slc12a8 gene; hippocampal neurospheres, 10 nM FK866 vs 0.1% DMSO", "result": 4.91}, {"measurement": "Slc12a8 Z ratio", "setting": "Slc12a8 gene; pancreatic islets, 10 nM FK866 vs 0.1% DMSO", "result": 1.69}, {"measurement": "Slc12a8 Z ratio", "setting": "Slc12a8 gene; primary hepatocytes, 200 nM FK866 vs 0.1% DMSO", "result": 2.06}, {"measurement": "Slc12a8 expression", "setting": "Slc12a8 mRNA expression", "result": "induced significantly"}]}, {"compound": "O=C(O)c1cccnc1", "note": "[NA, nicotinic acid]", "values": [{"measurement": "effect on uptake of 3H-NMN", "setting": "Slc12a8 [2]; Slc12a8-overexpressing proteoliposomes", "result": "able to enhance the uptake"}]}, {"compound": "NC(=O)c1ccc[n+]([C@@H]2O[C@H](COP(=O)([O-])OP(=O)(O)OC[C@H]3O[C@@H](n4cnc5c(N)ncnc54)[C@H](O)[C@@H]3O)[C@@H](O)[C@H]2O)c1", "note": "[NAD+]", "values": [{"measurement": "displacement of 3H-NMN", "setting": "Slc12a8 [2]; 25° C.", "result": "very low or negligible displacement"}]}, {"compound": "NC(=O)c1ccc[n+]([C@@H]2O[C@H](CO)[C@@H](O)[C@H]2O)c1", "note": "[NR, nicotinamide riboside]", "values": [{"measurement": "displacement of 3H-NMN", "setting": "Slc12a8 [2]; 25° C.", "result": "~70", "unit": "%"}, {"measurement": "IC50", "setting": "Slc12a8 [2]; Slc12a8-OE proteoliposome system", "result": "77.4 ± 10.8", "unit": "µM"}]}, {"compound": "O=C(O)c1ccc[n+]([C@@H]2O[C@H](COP(=O)(O)O)[C@@H](O)[C@H]2O)c1", "note": "[NaMN, nicotinic acid mononucleotide]", "values": [{"measurement": "displacement of 3H-NMN", "setting": "Slc12a8 [2]; 25° C.", "result": "very low or negligible displacement"}]}, {"compound": "NC(=O)c1cccnc1", "note": "[nicotinamide]", "values": [{"measurement": "displacement of 3H-NMN", "setting": "Slc12a8 [2]; 25° C.", "result": "very low or negligible displacement"}]}]}
